Key:
Experiment in all cases: relative viability (nuclei count vs DMSO), 5 days (fraction); higher = more cells survive
[1] = compound: CC1=NC=CC(=C1)C2=CC=C(C=C2)CC(=O)NC3=CC=C(C=C3)C4=CN=CC=C4 [Wnt-C59] + CC(=O)c1c(C)c2cnc(Nc3ccc(N4CCNCC4)cn3)nc2n(C2CCCC2)c1=O [Palbociclib] (partner 0.5 µM)
Method in brief: (§1)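 Lung cancer cell lines, seeded in 1536-well plates, were treated the following day by pin tool with a single drug or with five library-drug doses (not always all listed) in √10 steps on top of a fixed anchor-drug dose. Cells were fixed and nuclei stained in one step after 5 days, and nuclei were counted. Relative viability is the nuclei count for treated wells divided by that for vehicle wells, reported as medians of duplicate plates.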

[2] = compound: CS(=O)(=O)CCNCc1ccc(-c2ccc3ncnc(Nc4ccc(OCc5cccc(F)c5)c(Cl)c4)c3c2)o1 [Lapatinib] + CC1(C)CCC(c2ccc(Cl)cc2)=C(CN2CCN(c3ccc(C(=O)NS(=O)(=O)c4ccc(N[C@H](CCN5CCOCC5)CSc5ccccc5)c(S(=O)(=O)C(F)(F)F)c4)cc3)CC2)C1 [Navitoclax] (partner 0.5 µM)
Method in brief: as §1

[3] = compound: CS(=O)(=O)CCNCc1ccc(-c2ccc3ncnc(Nc4ccc(OCc5cccc(F)c5)c(Cl)c4)c3c2)o1 [Lapatinib] + Nc1ncn([C@H]2C[C@H](O)[C@@H](CO)O2)c(=O)n1 [Decitabine] (partner 2 µM)
Method in brief: as §1

[4] = compound: CS(=O)(=O)CCNCc1ccc(-c2ccc3ncnc(Nc4ccc(OCc5cccc(F)c5)c(Cl)c4)c3c2)o1 [Lapatinib] + CCNC(=O)c1noc(-c2cc(C(C)C)c(O)cc2O)c1-c1ccc(CN2CCOCC2)cc1 [Luminespib] (partner 0.01 µM)
Method in brief: as §1

Cell Line | relative viability ([1]; first compound 0.001 µM) | relative viability ([1]; first compound 0.03162 µM) | relative viability ([1]; first compound 0.1 µM) | relative viability ([2]; first compound 0.02 µM) | relative viability ([2]; first compound 0.06325 µM) | relative viability ([2]; first compound 0.2 µM) | relative viability ([2]; first compound 0.6325 µM) | relative viability ([2]; first compound 2 µM) | relative viability ([3]; first compound 0.06325 µM) | relative viability ([3]; first compound 0.2 µM) | relative viability ([3]; first compound 0.6325 µM) | relative viability ([3]; first compound 2 µM) | relative viability ([4]; first compound 0.02 µM) | relative viability ([4]; first compound 0.06325 µM) | relative viability ([4]; first compound 0.2 µM) | relative viability ([4]; first compound 0.6325 µM) | relative viability ([4]; first compound 2 µM) | relative viability ([1]; first compound 0.01 µM) | relative viability ([3]; first compound 0.02 µM)
EKVX | 0.389 | 0.327 | 0.179 | 0.859 | 0.916 | 0.809 | 0.77 | 0.199 | 0.326 | 0.333 | 0.304 | 0.138 | 0.712 | 0.804 | 0.767 | 0.853 | 0.447 |  | 
EMC-BAC-2 | 0.496 | 0.438 | 0.413 | 1.05 | 0.984 | 1.09 | 1.02 | 0.968 | 0.864 |  | 0.945 | 0.956 | 1.09 | 0.998 | 1.19 | 1.06 | 1.08 | 0.437 | 
EPLC-272H | 0.306 | 0.352 | 0.316 |  | 1.13 | 0.869 | 0.991 | 0.961 | 0.361 | 0.352 | 0.34 | 0.366 |  |  | 0.44 | 0.205 | 0.359 | 0.277 | 
H3255 | 0.354 | 0.302 | 0.311 | 0.476 | 0.512 | 0.37 | 0.464 | 0.111 | 0.543 | 0.584 | 0.422 | 0.207 | 0.471 | 0.676 | 0.879 | 0.805 | 0.757 | 0.331 | 
HARA | 0.27 | 0.325 | 0.22 | 1.13 | 1.18 | 1.15 | 1.08 | 0.938 | 0.525 | 0.522 | 0.37 | 0.398 |  | 0.58 | 0.54 | 0.499 | 0.399 | 0.231 | 0.575
HCC-15 | 0.769 | 0.7 | 0.717 |  | 0.679 | 0.704 | 0.635 | 0.599 | 0.537 | 0.677 | 0.64 | 0.568 |  | 0.425 | 0.303 | 0.293 | 0.235 | 0.735 | 
HCC-44 | 0.982 | 1.04 | 1 | 0.874 | 0.89 | 0.995 | 0.949 | 0.768 | 0.908 | 0.964 | 1.02 | 0.797 |  | 0.716 | 1.14 | 0.965 | 1.06 | 0.977 | 0.838
HCC-78 | 0.476 | 0.494 | 0.455 |  | 0.651 | 0.752 | 0.57 | 0.699 | 0.58 | 0.744 | 0.765 | 0.735 |  |  |  |  |  | 0.488 | 
HCC-366 | 0.461 | 0.402 | 0.386 |  | 1.02 | 1.08 | 1.03 | 0.914 | 0.348 | 0.405 | 0.368 | 0.291 |  |  |  |  |  | 0.376 | 
HCC-827 | 0.499 | 0.492 | 0.511 | 1 | 0.944 | 1.08 | 0.974 | 0.981 | 0.35 | 0.348 | 0.333 | 0.295 | 0.74 | 0.8 | 0.629 | 0.624 | 0.253 | 0.524 | 0.239

Source: the supplement of paper PMC10307832
